The values that follow come from patent US5874481A, “Fluorochemical solutions for the delivery of lipophilic pharmaceutical agents” (priority 1995, dated 1999).

Converted amounts (≈) assume the structure as drawn. Read-outs that look alike come from different tables or passages of the source. A value given as a limit tells only on which side of the number the result lay.

Data set [1] can be described thus: Solubility in perfluorooctyl ethane (Example 6). Type of data set: physicochemical. Conditions: organic solvent or mixture; saturated in n-C8F17C2H5; read-out: g/L in C8F17C2H5. On the procedure: A pharmaceutical fluorochemical solution was prepared as follows:
An aliquot of n-C8 F17 C2 H5 (2 mL; F-Tech, Inc.) was saturated with "Drug" (Sigma Chemical Co.).

Data set [2] is described as follows: Effect of fluorochemical lipophilicity on pharmaceutical solubility (Example 7). Type of data set: physicochemical. On the procedure:
Pharmaceutical fluorochemical solutions were prepared as follows: […]

The conditions of data set [3]: cited from earlier work.
The nature of data set [4]: Solubility of prednisone in fluorocarbons (Example 5). It counts as physicochemical. Conditions: organic solvent or mixture, read-out: mg/L of prednisone in fluorochemical matrix. On the procedure: A prednisone containing perfluorochemical solution was prepared as follows:
The column was a 25 cm amino column (Rainin), and the detection was carried out by a UV detector (Beckman System Gold) at the end of the column.

For data set [5] the following is noted: in vivo, cited from earlier work.
[6] abbreviates: octanol/pH 7.4 isotonic phosphate buffer at 37° C.

For `CCCCCCCCCCCCCCCc1cccc(O)c1` [m-Pentadecylphenol], the solubility in data set [1] is 0.4 g/L (≈ 1.31 mM); in data set [2] (c6f13c2h5, organic solvent or mixture), 0.7 mg/mL (≈ 2.3 mM); in data set [2] (c6f13c6h13, organic solvent or mixture), 4.1 mg/mL (≈ 13.5 mM); in data set [2] (c6f13c8h17, organic solvent or mixture), 5.6 mg/mL (≈ 18.4 mM); in data set [2] (c8f17c2h5, organic solvent or mixture), 0.4 mg/mL (≈ 1.31 mM); in data set [2] (c8f17c4h9, organic solvent or mixture) it was 0.6 mg/mL (≈ 1.97 mM). Also, the solubility in data set [2] (c8f17c6h13, organic solvent or mixture) stood at 1.7 mg/mL (≈ 5.58 mM). Also, the “log Po/w” value in data set [3] (octanol/water) is recorded as 9.53.
Take `CCc1cc2c(s1)N(C)C(=O)CN=C2c1ccccc1Cl` [clotiazepam]: in data set [3] (setting [6]), the “Log Po/w” value is 3.49 and the “Octanol/water partition coefficient Po/w” value is given as 3.06 × 10^3.
In the case of `CCc1ccccc1O` [o-Ethylphenol], the solubility in data set [1] amounted to 9.4 g/L (≈ 76.9 mM).
Regarding `C[C@]12C=CC(=O)C=C1CC[C@@H]1[C@@H]2C(=O)C[C@@]2(C)[C@H]1CC[C@]2(O)C(=O)CO` [prednisone], the solubility in data set [4] (1,4-dibromooctafluorobutane with 10% ethanol, in 1,4-Dibromooctafluorobutane with 10% Ethyl Alcohol) was 1700 mg/L (≈ 4.74 mM); in data set [4] (1,4-dibromooctafluorobutane with 50% ethanol, in 1,4-Dibromooctafluorobutane with 50% Ethyl Alcohol), 3800 mg/L (≈ 10.6 mM); in data set [4] (n-c6f13c2h5 with 3% ethanol, in n-C6F13C2H5 with 3% Ethyl Alcohol) it was 27 mg/L (≈ 0.0753 mM); in data set [4] (n-c6f13c6h13 with 3% ethanol, in n-C6F13C6H13 with 3% Ethyl Alcohol) it was 80 mg/L (≈ 0.223 mM); in data set [4] (n-c8f17br with 3% ethanol, in n-C8F17Br with 3% Ethyl Alcohol) it was less than 1 mg/L; in data set [4] (in 1,4-Dibromooctafluorobutane) it was less than 1 mg/L.
In the case of `OC(CCN1CCCCC1)(c1ccccc1)C1CCCCC1` (stereo not shown) [trihexyphenidyl], in data set [3] (octanol/water, pH 7.4), the “Log Po/w” value is listed as 3.17 and the “Octanol/water partition coefficient Po/w” value was 1.47 × 10^3.
For `CC(C)=CCN1CCC2(C)c3cc(O)ccc3CC1C2C` (stereo not shown) [pentazocin], in data set [3] (setting [6]), the “Log Po/w” value is on record as 2.18 and the “Octanol/water partition coefficient Po/w” value was 150.
On to `c1ccc2cc3cc4ccccc4cc3cc2c1` [2,3 Benzanthracene], for which the solubility in data set [1] is 0.0003 g/L (≈ 0.00131 mM). For the same compound, the “log Po/w” value in data set [3] (Example 6, source not stated) is recorded as 5.807.
Turning to `Cc1ccc(O)cc1` [p-Cresol], the solubility in data set [1] amounted to 3.9 g/L (≈ 36.1 mM). Also, the “log Po/w” value in data set [3] (Example 6, source not stated) is on record as 1.9.
For the compound `c1ccc2ccccc2c1` [Naphthalene], the solubility came out at 8.1 g/L (≈ 63.2 mM) in data set [1]; 12 mg/mL (≈ 93.6 mM) in data set [2] (organic solvent or mixture, in C6F13C2H5, read-out: Naphthalene); 30 mg/mL (≈ 234 mM) in data set [2] (organic solvent or mixture, in C6F13C6H13, read-out: Naphthalene); 40 mg/mL (≈ 312 mM) in data set [2] (organic solvent or mixture, in C6F13C8H17, read-out: Naphthalene); 8 mg/mL (≈ 62.4 mM) in data set [2] (organic solvent or mixture, in C8F17C2H5, read-out: Naphthalene); 14 mg/mL (≈ 109 mM) in data set [2] (organic solvent or mixture, in C8F17C4H9, read-out: Naphthalene). Besides, in data set [2] (organic solvent or mixture, in C8F17C6H13, read-out: Naphthalene), the solubility was 23 mg/mL (≈ 179 mM). Besides, the “log Po/w” value in data set [3] (Example 6, source not stated) is reported as 3.387.
As for `CCCCc1ccccc1` [Butylbenzene], the solubility in data set [1] came out at 116 g/L (≈ 862 mM). The “log Po/w” value in data set [3] (Example 6, source not stated) was 4.
Consider `CCCCCCCCCCCC(=O)N1CCCCCC1` [^14 C-hexamethylene lauramide, hexamethylene lauramide], for which, in data set [3] (octanol/water), the “Log Po/w” value is 7.3 and the “Octanol/water partition coefficient Po/w” value is recorded as 2.00 × 10^7.
As for `CC/C(=C(/CC)c1ccc(O)cc1)c1ccc(O)cc1` [^3 H -diethylstilbesterol, diethylstilbesterol], the “Octanol/water partition coefficient Po/w” value in data set [3] (octanol/water) is 1.26 × 10^5.
As to `CC(=O)[C@H]1CC[C@H]2[C@@H]3CCC4=CC(=O)CC[C@]4(C)[C@H]3CC[C@]12C` [^14 C-progesterone, progesterone], the “Octanol/water partition coefficient Po/w” value in data set [3] (octanol/water) is listed as 7.9 × 10^3.
As to `CC(=O)O[C@H]1C(=O)[C@@]2(C)[C@H]([C@H](OC(=O)c3ccccc3)[C@]3(O)C[C@H](OC(=O)[C@H](O)[C@@H](NC(=O)c4ccccc4)c4ccccc4)C(C)=C1C3(C)C)[C@]1(OC(C)=O)CO[C@@H]1C[C@@H]2O` [paclitaxel], in data set [5] (iv), the systemic toxicities result was “high systemic toxicities”. Further, the “systemic toxicities associated with paclitaxel” value in data set [5] was “cardiac toxicity and neurotoxicity”.
Consider `CCCCCCc1ccccc1` [Hexylbenzene], for which the solubility in data set [1] was 67.1 g/L (≈ 413 mM). Also, in data set [3] (octanol/water), the “log Po/w” value is 5.52.
Turning to `c1ccc2cc3ccccc3cc2c1` [Antracene], the solubility in data set [1] came to 0.09 g/L (≈ 0.505 mM). The “log Po/w” value in data set [3] (Example 6, source not stated) was 4.473.
As for `CN(C)CCCN1c2ccccc2CCc2ccc(Cl)cc21` [clomipramine], in data set [3] (octanol/water, pH 7.4), the “Octanol/water partition coefficient Po/w” value was 3.80 × 10^3.
On to `CCCCCC(=O)OCCOCn1cnc2c(=O)[nH]c(N)nc21` [hexanoyl acyclovir], for which, in data set [3] (setting [6]), the “Log Po/w” value is given as 0.93.
Consider `CCCCC(=O)OCCOCn1cnc2c(=O)[nH]c(N)nc21` [valeryl acyclovir], for which, in data set [3] (setting [6]), the “Log Po/w” value was 0.30.
`CCCCN1CCCCC1C(=O)Nc1c(C)cccc1C` (stereo not shown) [bupivacaine]: in data set [3] (octanol/water), the “Octanol/water partition coefficient Po/w” value is recorded as 28.2.
With `CC(CN1c2ccccc2Sc2ccccc21)N(C)C` (stereo not shown) [promethazine], in data set [3] (setting [6]), the “Log Po/w” value was 3.10 and the “Octanol/water partition coefficient Po/w” value is given as 1.27 × 10^3.
In the case of `c1ccc2cc3ccccc3cc2c1` [^14 C-anthracene, anthracene], the “Octanol/water partition coefficient Po/w” value in data set [3] (octanol/water) is recorded as 3.16 × 10^4.
